Calls of active or inactive are those of the source. No cut-off for these calls is given here.
Experiments:
Assay type in all cases: functional
Candida albicans = assay: Antimicrobial activity against Candida albicans assessed as diameter of growth inhibition zone at 1 mg/ml after 48 hr by potato dextrose agar well diffusion method
Aspergillus niger = assay: Antimicrobial activity against Aspergillus niger assessed as diameter of growth inhibition zone at 1 mg/ml after 48 hr by potato dextrose agar well diffusion method
Staphylococcus aureus = assay: Antimicrobial activity against Staphylococcus aureus assessed as diameter of growth inhibition zone at 1 mg/ml after 24 hr by nutrient agar well diffusion method; settings: for zone of inhibition at 1000 µg/mL: read-out: DIZ
Bacillus subtilis = assay: Antimicrobial activity against Bacillus subtilis assessed as diameter of growth inhibition zone at 1 mg/ml after 24 hr by nutrient agar well diffusion method; settings: for zone of inhibition at 1000 µg/mL: read-out: DIZ
Klebsiella pneumoniae = assay: Antimicrobial activity against Klebsiella pneumoniae assessed as diameter of growth inhibition zone at 1 mg/ml after 24 hr by nutrient agar well diffusion method
Escherichia coli = assay: Antimicrobial activity against Escherichia coli assessed as diameter of growth inhibition zone at 1 mg/ml after 24 hr by nutrient agar well diffusion method; settings: read-out: DIZ

Molecule | inhibition (Klebsiella pneumoniae) | zone of inhibition at 1000 µg/mL (Escherichia coli) | zone of inhibition at 1000 µg/mL (Staphylococcus aureus) | zone of inhibition at 1000 µg/mL (Bacillus subtilis) | other results
NYSTATIN | – | – | – | – | inhibition zone (IZ) (Candida albicans): 36 mm; inhibition zone (IZ) (Aspergillus niger): 25 mm
N#CC(C#N)/N=N/c1nc2ccccc2[nH]1 | inactive | 10.8 mm | – | – | inhibition (Staphylococcus aureus): inactive; inhibition (Bacillus subtilis): inactive; inhibition (Candida albicans): inactive; inhibition (Aspergillus niger): inactive
CCOC(=O)C(C#N)/N=N/c1nc2ccccc2[nH]1 (stereo not drawn) | – | 8.5 mm | 7.5 mm | 8 mm | zone of inhibition at 1000 µg/mL (Klebsiella pneumoniae; read-out: DIZ): 9 mm; zone of inhibition at 1000 µg/mL (Candida albicans; read-out: DIZ): 9 mm; zone of inhibition at 1000 µg/mL (Aspergillus niger; read-out: DIZ): 8.5 mm
CC1(C)S[C@@H]2[C@H](NC(=O)[C@H](N)c3ccccc3)C(=O)N2[C@H]1C(=O)O [AMPICILLIN] | inactive | 31.2 mm | 30.5 mm | 29.5 mm | –
